How the values were obtained:
Type in all cases: cell-based
[1] = system: third stage larvae of Haemonchus contortus; assay: Haemonchus contortus L3 (HcL3) Assay; settings: 96 h, read-out: HcL3 Minimum Effective Dose (MED)
[2] = system: microfilariae of Dirofilaria immitis; assay: Dirofilaria immitis, Microfilaria (DiMF) In vitro Assay; settings: 72 h, read-out: DiMF Minimum Effective Dose (MED), approximately 72 hours incubation, microfilariae assessed for survival or paralysis
[3] = system: 4th stage larvae (L4) of Dirofilaria immitis; assay: Dirofilaria immitis, L4 Stage (DiL4) In Vitro Assay; settings: Dirofilaria immitis, 72 h, read-out: DiL4 Minimum Effective Dose (MED), approximately 72 hours incubation; L4 larvae assessed for survival or paralysis

Compound | minimal effective concentration [1] [µM] | minimal effective concentration [2] [µM] | minimal effective concentration [3] [µM]
CCc1cc(C)n(Cc2ccc(C[C@H]3OC(=O)[C@H](CC(C)C)N(C)C(=O)[C@@H](C)OC(=O)[C@H](CC(C)C)N(C)C(=O)[C@@H](Cc4ccc(Cn5nc(C)cc5CC)cc4)OC(=O)[C@H](CC(C)C)N(C)C(=O)[C@@H](C)OC(=O)[C@H](CC(C)C)N(C)C3=O)cc2)n1 [Example 1b-186, (3S,6R,9S,12R,15S,18R,21S,24R)-6-(4-((5-ethyl-3-methyl-1H-pyrazol-1-yl)methyl)benzyl)-18-(4-((3-ethyl-5-methyl-1H-pyrazol-1-yl)methyl)benzyl)-3,9,15,21-tetraisobutyl-4,10,12,16,22,24-hexamethyl-1,7,13,19-tetraoxa-4,10,16,22-tetraazacyclotetracosan-2,5,8,11,14,17,20,23-octaone] | 1 to 10 | 0.01 to 0.1 | 0.0001 to 0.001
CC(C)C[C@H]1C(=O)O[C@H](Cc2ccc(Cn3nccc3C3(F)CC3)cc2)C(=O)N(C)[C@@H](CC(C)C)C(=O)O[C@H](C)C(=O)N(C)[C@@H](CC(C)C)C(=O)O[C@H](Cc2ccc(Cn3nccc3C3(F)CC3)cc2)C(=O)N(C)[C@@H](CC(C)C)C(=O)O[C@H](C)C(=O)N1C [Example 1b-215, (3S,6R,9S,12R,15S,18R,21S,24R)-6,18-bis(4-((5-(1-fluorocyclopropyl)-1H-pyrazol-1-yl)methyl)benzyl)-3,9,15,21-tetraisobutyl-4,10,12,16,22,24-hexamethyl-1,7,13,19-tetraoxa-4,10,16,22-tetraazacyclotetracosan-2,5,8,11,14,17,20,23-octaone] | ≤ 1 | 0.001 to 0.01 | 0.0001 to 0.001
CC(C)C[C@H]1C(=O)O[C@H](Cc2ccc(Cn3ncnc3C3CCCC3)cc2)C(=O)N(C)[C@@H](CC(C)C)C(=O)O[C@H](C)C(=O)N(C)[C@@H](CC(C)C)C(=O)O[C@H](Cc2ccc(Cn3ncnc3C3CCCC3)cc2)C(=O)N(C)[C@@H](CC(C)C)C(=O)O[C@H](C)C(=O)N1C [Example 9-52, (3S,6R,9S,12R,15S,18R,21S,24R)-6,18-bis(4-((5-cyclopentyl-1H-1,2,4-triazol-1-yl)methyl)benzyl)-3,9,15,21-tetraisobutyl-4,10,12,16,22,24-hexamethyl-1,7,13,19-tetraoxa-4,10,16,22-tetraazacyclotetracosan-2,5,8,11,14,17,20,23-octaone] | 1 to 10 | 0.001 to 0.01 | 0.001 to 0.01
CC(C)C[C@H]1C(=O)O[C@H](Cc2ccc(Cn3cc(F)cn3)cc2)C(=O)N(C)[C@@H](CC(C)C)C(=O)O[C@H](C)C(=O)N(C)[C@@H](CC(C)C)C(=O)O[C@H](Cc2ccccc2)C(=O)N(C)[C@@H](CC(C)C)C(=O)O[C@H](C)C(=O)N1C [Example 2-28, (3S,6R,9S,12R,15S,18R,21S,24R)-6-benzyl-18-(4-((4-fluoro-1H-pyrazol-1-yl)methyl)benzyl)-3,9,15,21-tetraisobutyl-4,10,12,16,22,24-hexamethyl-1,7,13,19-tetraoxa-4,10,16,22-tetraazacyclotetracosan-2,5,8,11,14,17,20,23-octaone] | 1 to 10 | 0.001 to 0.01 | 0.0001 to 0.001
CC(C)C[C@H]1C(=O)O[C@H](Cc2ccc(Cn3nccc3C3CC3)cc2)C(=O)N(C)[C@@H](CC(C)C)C(=O)O[C@H](C)C(=O)N(C)[C@@H](CC(C)C)C(=O)O[C@H](Cc2ccccc2)C(=O)N(C)[C@@H](CC(C)C)C(=O)O[C@H](C)C(=O)N1C [Example 2-66, (3S,6R,9S,12R,15S,18R,21S,24R)-6-benzyl-18-(4-((5-cyclopropyl-1H-pyrazol-1-yl)methyl)benzyl)-3,9,15,21-tetraisobutyl-4,10,12,16,22,24-hexamethyl-1,7,13,19-tetraoxa-4,10,16,22-tetraazacyclotetracosan-2,5,8,11,14,17,20,23-octaone] | 1 to 10 | 0.001 to 0.01 | 0.0001 to 0.001
Cc1ncc(-c2ccnn2Cc2ccc(C[C@H]3OC(=O)[C@H](CC(C)C)N(C)C(=O)[C@@H](C)OC(=O)[C@H](CC(C)C)N(C)C(=O)[C@@H](Cc4ccc(Cn5nccc5-c5cnc(C)nc5)cc4)OC(=O)[C@H](CC(C)C)N(C)C(=O)[C@@H](C)OC(=O)[C@H](CC(C)C)N(C)C3=O)cc2)cn1 [Example 1b-207, (3S,6R,9S,12R,15S,18R,21S,24R)-3,9,15,21-tetraisobutyl-4,6,10,16,18,22-hexamethyl-12,24-bis(4-((5-(2-methylpyrimidin-5-yl)-1H-pyrazol-1-yl)methyl)benzyl)-1,7,13,19-tetraoxa-4,10,16,22-tetraazacyclotetracosan-2,5,8,11,14,17,20,23-octaone] | 1 to 10 | 0.001 to 0.01 | 0.001 to 0.01
CC(C)C[C@H]1C(=O)O[C@H](Cc2ccc(Cn3cnc(Br)c3)cc2)C(=O)N(C)[C@@H](CC(C)C)C(=O)O[C@H](C)C(=O)N(C)[C@@H](CC(C)C)C(=O)O[C@H](Cc2ccc(Cn3cnc(Br)c3)cc2)C(=O)N(C)[C@@H](CC(C)C)C(=O)O[C@H](C)C(=O)N1C [Example 6-12, (3S,6R,9S,12R,15S,18R,21S,24R)-6,18-bis(4-((4-bromo-1H-imidazol-1-yl)methyl)benzyl)-3,9,15,21-tetraisobutyl-4,10,12,16,22,24-hexamethyl-1,7,13,19-tetraoxa-4,10,16,22-tetraazacyclotetracosan-2,5,8,11,14,17,20,23-octaone] | 1 to 10 | 0.001 to 0.01 | ≤ 0.0001
CC(C)C[C@H]1C(=O)O[C@H](Cc2ccc(Cn3nccc3C(C)C)cc2)C(=O)N(C)[C@@H](CC(C)C)C(=O)O[C@H](C)C(=O)N(C)[C@@H](CC(C)C)C(=O)O[C@H](Cc2ccccc2)C(=O)N(C)[C@@H](CC(C)C)C(=O)O[C@H](C)C(=O)N1C [Example 2-69, (3S,6R,9S,12R,15S,18R,21S,24R)-6-benzyl-3,9,15,21-tetraisobutyl-18-(4-((5-isopropyl-1H-pyrazol-1-yl)methyl)benzyl)-4,10,12,16,22,24-hexamethyl-1,7,13,19-tetraoxa-4,10,16,22-tetraazacyclotetracosan-2,5,8,11,14,17,20,23-octaone] | 1 to 10 | 0.001 to 0.01 | 0.0001 to 0.001
CC(C)C[C@H]1C(=O)O[C@H](Cc2ccc(Cn3cc(Br)cn3)cc2)C(=O)N(C)[C@@H](CC(C)C)C(=O)O[C@H](C)C(=O)N(C)[C@@H](CC(C)C)C(=O)O[C@H](Cc2ccc(Cn3cccn3)cc2)C(=O)N(C)[C@@H](CC(C)C)C(=O)O[C@H](C)C(=O)N1C [Example 1a-16, (3S,6R,9S,12R,15S,18R,21S,24R)-6-(4-((1H-pyrazol-1-yl)methyl)benzyl)-18-(4-((4-bromo-1H-pyrazol-1-yl)methyl)benzyl)-3,9,15,21-tetraisobutyl-4,10,12,16,22,24-hexamethyl-1,7,13,19-tetraoxa-4,10,16,22-tetraazacyclotetracosan-2,5,8,11,14,17,20,23-octaone] | 1 to 10 | 0.001 to 0.01 | 0.0001 to 0.001
CC(C)C[C@H]1C(=O)O[C@H](Cc2ccc(Cn3ncnc3CC(C)(C)C)cc2)C(=O)N(C)[C@@H](CC(C)C)C(=O)O[C@H](C)C(=O)N(C)[C@@H](CC(C)C)C(=O)O[C@H](Cc2ccc(Cn3ncnc3CC(C)(C)C)cc2)C(=O)N(C)[C@@H](CC(C)C)C(=O)O[C@H](C)C(=O)N1C [Example 9-56, (3S,6R,9S,12R,15S,18R,21S,24R)-3,9,15,21-tetraisobutyl-4,6,10,16,18,22-hexamethyl-12,24-bis(4-((5-neopentyl-1H-1,2,4-triazol-1-yl)methyl)benzyl)-1,7,13,19-tetraoxa-4,10,16,22-tetraazacyclotetracosan-2,5,8,11,14,17,20,23-octaone] | 1 to 10 | 0.001 to 0.01 | 0.001 to 0.01
CC(C)C[C@H]1C(=O)O[C@H](Cc2ccc(Cn3nccc3CC3CC3)cc2)C(=O)N(C)[C@@H](CC(C)C)C(=O)O[C@H](C)C(=O)N(C)[C@@H](CC(C)C)C(=O)O[C@H](Cc2ccc(Cn3nccc3CC3CC3)cc2)C(=O)N(C)[C@@H](CC(C)C)C(=O)O[C@H](C)C(=O)N1C [Example 1b-206, (3S,6R,9S,12R,15S,18R,21S,24R)-6,18-bis(4-((5-(cyclopropylmethyl)-1H-pyrazol-1-yl)methyl)benzyl)-3,9,15,21-tetraisobutyl-4,10,12,16,22,24-hexamethyl-1,7,13,19-tetraoxa-4,10,16,22-tetraazacyclotetracosan-2,5,8,11,14,17,20,23-octaone] | ≤ 1 | 0.01 to 0.1 | 0.0001 to 0.001
Cc1ccc(C#N)n1Cc1ccc(C[C@H]2OC(=O)[C@H](CC(C)C)N(C)C(=O)[C@@H](C)OC(=O)[C@H](CC(C)C)N(C)C(=O)[C@@H](Cc3ccc(Cn4c(C)ccc4C#N)cc3)OC(=O)[C@H](CC(C)C)N(C)C(=O)[C@@H](C)OC(=O)[C@H](CC(C)C)N(C)C2=O)cc1 [Example 9-48, 1,1′-(((((2R,5S,8R,11 S,14R,17S,20R,23S)-5,11,17,23-tetraisobutyl-4,8,10,16,20,22-hexamethyl-3,6,9,12,15,18,21,24-octaoxo-1,7,13,19-tetraoxa-4,10,16,22-tetraazacyclotetracosane-2,14-diyl)bis(methylene))bis(4,1-phenylene))bis(methylene))bis(5-methyl-1H-pyrrole-2-carbonitrile)] | ≤ 1 | 0.001 to 0.01 | ≤ 0.0001

From patent US11331369B2, “Endoparasitic depsipeptides” (Zoetis Services LLC, priority 2017, dated 2022)
